Data taken from US20080063703A1, “Active Drug Delivery in the Gastrointestinal Tract” (priority 2004, published 2008).
Read-outs that look alike come from different tables or passages of the source.

Legend:
rat jejunum = test: In vitro macromolecule permeation of rat jejunum sections with/without electrical stimulation and L-NAME (FIG. 37); type: in vitro ADME
Procedure: Reference is now made to FIG. 37, which is a graph showing in vitro measurements of macromolecule permeation, measured in accordance with an embodiment of the present invention. Several sections of rat jejunum were prepared, and the permeation of the sections to Leuprolide and Octreotide peptides was measured with and without electrical stimulation, and with and without application of 1 mM N^G-Nitro-L-Arginine methyl ester (L-NAME), a non-specific nitric oxide (NO) synthase (NOS) inhibitor. The electrical stimulation included the following parameters: 18 Hz, 1 ms pulses, and 5 mA (corresponding to a voltage of about 2 V).

[1] = system: proabsorptive effect of NO; conditions: addition of NOS inhibitors; cited from earlier work
[2] = system: electrically-induced NO synthesis and release; conditions: NO synthase inhibitor added; cited from earlier work
rat intestine = conditions: all regions of the rat intestine; cited from earlier work
mouse ileum = conditions: addition of NO donors to mouse ileum; cited from earlier work
[3] = system: upper jejunum tissue segments; test: Octreotide permeation via rat upper jejunum tissue segment in diffusion chamber, with or without LITV pulses (FIG. 24); type: in vitro ADME, Wistar rat; conditions: LITV pulses 12 Hz, 1 millisecond, 3 mA vs control without stimulation; 1 mg/ml octreotide acetate, 90-minute period
Procedure: Reference is now made to FIG. 24, which is a graph showing in vitro experimental results measured in accordance with an embodiment of the present invention. A 300 g Wistar rat was anaesthetized using Ketamine (100 mg/kg) and Xylazine (10 mg/kg). Two 3 cm-long sections of the upper jejunum were removed and opened along the lumen so that two rectangular pieces of tissue were available. The serosal and muscular layers were removed using a microscope cover glass. The intestinal tissue segments were placed on slides and inserted into diffusion chambers similar to experimental diffusion chamber 500, described hereinbelow with reference to FIG. 26. […] The tissue segments on the slides completely covered the windows between the donor and acceptor cells. The cells were filled with 15 ml of Hank's Balanced Salt Solution (HBSS) (pH 7.4). The donor cells were then divided into two separate sections with a dividing board slightly touching the tissue so that fluid passage between the two parts of each donor cell was slow (if not impossible). […]
In one of the diffusion chambers (which served as a control), permeation of octreotide via the tissue segment was measured without the application of electrical stimulation. […] The samples were analyzed by HPLC-UV 205 nm spectroscopy (Hewlett-Packard 1100, acetonitril: phosphate buffer (pH 7.4) (40:60), C18 column) for their content of octreotide.

proximal ileum tissue = test: Octreotide permeation via proximal ileum tissue in diffusion chamber 500 with LITV pulses (FIG. 36); type: in vitro ADME, Wistar rat; conditions: 18 Hz, 3 mA, 1 millisecond vs control, at 7 minutes (FIG. 36)
Procedure: (§1) Reference is now made to FIG. 26, which is a schematic cross-sectional illustration of an experimental diffusion chamber 500, and FIGS. 27-36, which are graphs showing in vitro experimental results generated in accordance with respective embodiments of the present invention. A number of 300 g Wistar rats were anaesthetized using Ketamine (100 mg/kg) and Xylazine (10 mg/kg). Two 3 cm-long sections 510 of the intestine were removed from each rat and opened along the mesenterial line so that two rectangular pieces of tissue were available from each rat (a single tissue section 510 is shown in FIG. 26). For the experiments described hereinbelow with reference to FIGS. 27-35, the intestinal sections were taken from the upper jejunum, while for the experiment described hereinbelow with reference to FIG. 36, the intestinal sections were taken from the upper jejunum, proximal ileum, and distal ileum. The serosal and muscular layers of the intestinal sections were removed using a microscope cover glass. […]
(§2) In each of the experiments described hereinbelow with reference to FIGS. 27-36, beginning upon replacement of the HBSS in donor cell 520 with octreotide, a train of LITV pulses was applied through electrodes 530, and the permeation of octreotide from donor cell 520 to acceptor cell 522 via tissue segment 510 was measured. […]

jejunal tissue = test: Octreotide permeation via jejunal tissue in diffusion chamber 500 with LITV pulses (FIGS. 27-36); type: in vitro ADME, Wistar rat; conditions: for permeation efficiency, effect of pulse cycle: 1 millisecond (FIG. 31); for octreotide permeation vs control group: 3 mA (FIG. 29); for permeation efficiency, effect of electrode material: 1 millisecond (FIG. 34)
Procedure: Reference is now made to FIG. 26, which is a schematic cross-sectional illustration of an experimental diffusion chamber 500, and FIGS. 27-36, which are graphs showing in vitro experimental results generated in accordance with respective embodiments of the present invention. A number of 300 g Wistar rats were anaesthetized using Ketamine (100 mg/kg) and Xylazine (10 mg/kg). Two 3 cm-long sections 510 of the intestine were removed from each rat and opened along the mesenterial line so that two rectangular pieces of tissue were available from each rat (a single tissue section 510 is shown in FIG. 26). For the experiments described hereinbelow with reference to FIGS. 27-35, the intestinal sections were taken from the upper jejunum, while for the experiment described hereinbelow with reference to FIG. 36, the intestinal sections were taken from the upper jejunum, proximal ileum, and distal ileum. The serosal and muscular layers of the intestinal sections were removed using a microscope cover glass. Each of the intestinal tissue segments was placed on a slide and inserted into diffusion chamber 500.
Diffusion chamber 500 is shaped so as to define a donor cell 520 and an acceptor cell 522, connected by a 28 mm×8 mm window 524. Tissue segment 510 on the slide completely covered window 524. Tissue segment 510 was placed so as to completely cover window 524, thereby separating donor cell 520 and acceptor cell 522. Tissue segment 510 was oriented such that the mucosal side thereof faced donor cell 520, and the serosal side thereof faced acceptor cell 522. Donor cell 520 was filled with 15 ml of Hank's Balanced Salt Solution (HBSS) adjusted to a pH of 7.4 (in mM: 136.9 NaCl, 5.4 KCl, 0.5 MgCl2, 0.4 MgSO4, 4.5 KH2PO4, 0.35 Na2HPO4, 1.0 CaCl2, 4.2 NaHCO3, 5.5 D-Glucose). Acceptor cell 522 was filled with D-Glucose-supplemented Phosphate Buffered Saline (PBS) adjusted to a pH of 7.4 (in mM: 136.9 NaCl, 2.7 KCl, 0.5 MgCl2, 1.5 KH2PO4, 8.1 Na2HPO4, 0.7 CaCl2, 5.5 D-Glucose).
After tissue segment 510 was placed over window 524, the donor cell was divided into two separate compartments 526a and 526b by an electrically-insulating divider 528 positioned to slightly touch tissue segment 510 so that fluid passage between compartments 526a and 526b was slow (if not impossible). (Donor cell 520 was not divided into compartments 526a and 526b in the experiment described hereinbelow with reference to FIG. 33.) The solution was maintained at 37° C. and gassed with 95% O2/5% CO2, supplied via 1 mm ID tubes placed at the bottom of each cell (tubes not shown in FIG. 26).
A single square electrode 530 was placed in each of compartments 526a and 526b of donor cell 520, such that an electrode surface 532 of each electrode was parallel to the surface of tissue segment 510, at a 0.5 mm distance from tissue segment 510 (except for the experiment described hereinbelow with reference to FIG. 32). Electrodes 530 comprised stainless steel (SS316L, 6 mm×6 min) (except for the experiment described hereinbelow with reference to FIG. 34). The distance between the centers of electrode surfaces 532 was 10 mm. After tissue segment 510 was in position over window 524 for 30 minutes, the HBSS in donor cell 520 was replaced with 1 mg/ml octreotide acetate (Sandostatin) containing HBSS.
In each of the experiments described hereinbelow with reference to FIGS. 27-36, beginning upon replacement of the HBSS in donor cell 520 with octreotide, a train of LITV pulses was applied through electrodes 530, and the permeation of octreotide from donor cell 520 to acceptor cell 522 via tissue segment 510 was measured. This train of monophasic rectangular pulses was generated using a Thurlby Thandar Instruments TGP110 pulse generator. The voltage output of the pulse generator was adjusted so that a 3 mA current flowed through the electrodes. An EZ Digital Co. DM330 Digital Multimeter, connected serially to the electrodes, was used to measure current. […]

distal ileum tissue = test: Octreotide permeation via distal ileum tissue in diffusion chamber 500 with LITV pulses (FIG. 36); type: in vitro ADME, Wistar rat; conditions: 18 Hz, 3 mA, 1 millisecond vs control, at 7 minutes (FIG. 36)
Procedure: as §1, §2

Q: Which results are given for COC(=O)[C@@H](N)CCCNC(=N)N[N+](=O)[O-] [L-NAME, N^G-Nitro-L-Arginine methyl ester]?
A: effect of NOS inhibition on peptide permeation vs non-NOS-inhibited groups (rat jejunum; 1 mM L-NAME, with and without stimulation): substantially less; proabsorptive effect of NO [1]: significantly reduced

Q: For CNC(=N)NCCC[C@H](N)C(=O)O [L-NMA, N^G-methyl-L-arginine], which “proabsorptive effect of NO” value [1] is on record?
A: Its value is “significantly reduced”.

Q: For N=C(NCCC[C@H](N)C(=O)O)N[N+](=O)[O-] [L-NNA, N^G-nitro-L-arginine], which “proabsorptive effect of NO” value [1] is on record?
A: The value was “significantly reduced”.

Q: What about the “electrically-induced NO synthesis and release” value [2] of the same molecule?
A: Its value is “almost entirely prevented”.

Q: With CCNC(=O)[C@@H]1CCCN1C(=O)[C@H](CCCNC(=N)N)NC(=O)[C@H](CC(C)C)NC(=O)[C@@H](CC(C)C)NC(=O)[C@H](Cc1ccc(O)cc1)NC(=O)[C@H](CO)NC(=O)[C@H](Cc1c[nH]c2ccccc12)NC(=O)[C@H](Cc1c[nH]cn1)NC(=O)[C@@H]1CCC(=O)N1 [Leuprolide] as the molecule, how does the “penetration of the peptides” value (rat jejunum) read?
A: The value was “about 0.6 ug/ml”.

Q: With CC(C)N(CCCN)/[N+]([O-])=N/O [NOC5] as the molecule, how does the absorption of macromolecules (rat intestine) read?
A: Its absorption of macromolecules is “improve absorption of macromolecules”.

Q: With CNCCCN(C)/[N+]([O-])=N/O [NOC7] as the molecule, how does the absorption of macromolecules (rat intestine) read?
A: Its absorption of macromolecules is “improve absorption of macromolecules”.

Q: For CCNCCN(CC)/[N+]([O-])=N/O [NOC12], which absorption of macromolecules (rat intestine) is on record?
A: Its absorption of macromolecules is “improve absorption of macromolecules”.

Q: With CC(=O)N[C@H](C(=O)O)C(C)(C)SN=O [SNAP, S-nitroso-acetyl-penicillamine] as the molecule, how does the transepithelial electrical resistance (mouse ileum) read?
A: Its transepithelial electrical resistance is “decrease in transepithelial electrical resistance”.

Q: With C[C@@H](O)[C@@H]1NC(=O)[C@H](CCCCN)NC(=O)[C@@H](Cc2c[nH]c3ccccc23)NC(=O)[C@H](Cc2ccccc2)NC(=O)[C@@H](NC(=O)[C@H](N)Cc2ccccc2)CSSC[C@@H](C(=O)N[C@H](CO)[C@@H](C)O)NC1=O [octreotide, octreotide acetate] as the molecule, how does the “octreotide permeation into acceptor cell” value [3] read?
A: The value was “substantially greater increase in octreotide permeation”.

Q: What about the “permeation of the peptides” value (rat jejunum; NOS-inhibited (1 mM L-NAME) non-stimulation group, after 45 minutes) of the same molecule?
A: Its value is “about 0.45 ug/ml”.

Q: And the “permeation of the peptides” value (rat jejunum; NOS-inhibited (1 mM L-NAME) stimulation group (18 Hz, 1 ms, 5 mA), after 45 minutes)?
A: The value was “about 0.45 ug/ml”.

Q: And the “permeation of the peptides” value (rat jejunum; non-NOS-inhibited electrical stimulation group (18 Hz, 1 ms, 5 mA), after 45 minutes)?
A: The value was “about 1.45 ug/ml”.

Q: What about the “penetration of the peptides” value (rat jejunum; non-stimulation, non-NOS-inhibited control group, after 45 minutes) of the same molecule?
A: Its value is “about 0.6 ug/ml”.

Q: And the “permeation efficiency in different regions of the intestine” value (proximal ileum tissue)?
A: The value was “increased permeation efficiency”.

Q: And the “magnitude of permeation efficiency, effect of electrode distance from jejunal tissue” value (jejunal tissue; 0.5 mm vs 3 mm, 18 Hz, 3 mA, 1 millisecond, at 15 minutes (FIG. 32))?
A: The value was “greater at 0.5 mm than at 3 mm”.

Q: And the “permeation efficiency, effect of pulse cycle” value (jejunal tissue; 1 pulse per cycle, 18 Hz, 3 mA)?
A: Its value is “greatest permeation efficiency”.

Q: What about the “enhancement ratio, effect of pulse frequency” value (jejunal tissue; 18 Hz among 5-60 Hz tested, 1 millisecond, 3 mA, at 30 minutes (FIG. 28)) of the same molecule?
A: Its value is “greatest enhancement ratio”.

Q: And the “permeation efficiency, effect of cessation of pulse application” value (jejunal tissue; continuous application vs cessation after 10 minutes, 18 Hz, 3 mA, 1 millisecond (FIG. 35))?
A: Its value is “substantially greater permeation efficiency”.

Q: What about the “permeation efficiency, effect of electrode insulation” value (jejunal tissue; electrodes not insulated from each other (without divider 528), 18 Hz, 3 mA, 1 millisecond (FIG. 33)) of the same molecule?
A: Its value is “did not increase permeation efficiency”.

Q: What about the “permeation efficiency, effect of pulse cycle” value (jejunal tissue; increasing number of pulses per cycle (2, 3), 18 Hz, 3 mA) of the same molecule?
A: The value was “the permeation efficiency decreased”.

Q: What about the “permeation efficiency in different regions of the intestine” value (jejunal tissue; jejunal tissue, 18 Hz, 3 mA, 1 millisecond vs control, at 7 minutes (FIG. 36)) of the same molecule?
A: The value was “greatest effect of pulse application”.

Q: And the “enhancement ratio, effect of pulse duration” value (jejunal tissue; pulse duration 1 millisecond among 0.2-3 milliseconds tested, 18 Hz, 3 mA, at 15 minutes (FIG. 30))?
A: The value was “greatest enhancement ratio”.

Q: And the “octreotide permeation (permeation efficiency)” value (jejunal tissue; pulses 1 millisecond, 18 Hz, 3 mA vs non-stimulated control group (FIG. 27))?
A: Its value is “substantially enhanced octreotide permeation”.

Q: What about the “octreotide permeation vs control group” value (jejunal tissue; pulses at 5 Hz, 1 millisecond) of the same molecule?
A: The value was “did not yield a higher octreotide permeation”.

Q: What about the “octreotide permeation vs control group” value (jejunal tissue; pulses at 60 Hz, 1 millisecond) of the same molecule?
A: Its value is “did not yield a higher octreotide permeation”.

Q: And the “permeation efficiency, effect of electrode material” value (jejunal tissue; silver chloride electrodes, 18 Hz, 3 mA)?
A: The value was “did not increase permeation efficiency”.

Q: And the “permeation efficiency, effect of electrode material” value (jejunal tissue; stainless steel (SS316L) electrodes, 18 Hz, 3 mA)?
A: The value was “substantially increased permeation efficiency”.

Q: And the “permeation efficiency, effect of electrode material” value (jejunal tissue; titanium nitride electrodes, 18 Hz, 3 mA)?
A: Its value is “did not increase permeation efficiency”.

Q: And the “permeation efficiency in different regions of the intestine” value (distal ileum tissue)?
A: The value was “positive but less pronounced effect”.
